Where no end group is shown, it is not given here.
Tested on: patients undergoing ERCP
Experiment: Incidence and severity of post-ERCP pancreatitis, randomized double-blind placebo controlled study
Type: in vivo, human
Excerpt: This was a prospectively randomized, parallel group, double-blind, placebo controlled study conducted at one center. This was the ideal study design for evaluation of the prophylactic use of sPS in ERCP to decrease the incidence of post-ERCP pancreatitis. Parallel group design was necessary because patients usually require only one ERCP and, in any case, the first procedure might have an unknown effect on the outcome of a subsequent ERCP. Double-blinding the study was necessary because a major component of the evaluation related to symptoms such as pain and nauseas, which are, in part, subjective for the patient. The final classification of each patient required an overall medical judgment by the investigator. In order for this to be as objective as possible, the assessor (Principal Investigator) had to be blinded. Placebo control with normal saline was required because there is no approved or medically accepted drug to prevent post-ERCP pancreatitis. Further, sterile normal saline, USP for injection was completely safe with no pharmacological effect and produced a clear, colorless solution, which was indistinguishable from reconstituted sPS.
Patients undergoing ERCP for medical reasons were the appropriate population to evaluate because only those requiring ERCP have the procedure and are subject to the known risk of post-ERCP pancreatitis. The patients had to meet all of the inclusion criteria to be enrolled in the study. […] Subjects were discontinued for the following reasons: (1) voluntary withdraw at subject's request; (2) noncompliance by subject to study procedures; (3) protocol violation such as discovery of pancreas divisum at the time of the ERCP, or (4) excessive toxicity from any study procedure or drug which in the judgment of the investigator makes continuation in the study contrary to the subject's medical interests. Subjects who discontinued from the study after receiving study drug were followed for safety and were replaced.
This study compared synthetic porcine secretin (sPS) at a dose of 16 mcg (8 mL) (24 mcg for procedures longer than 30 minutes) given as a slow IV push over one minute and an equal volume of physiologic sterile saline USP for injection. Subjects were randomly assigned to one of two treatment groups (sPS vs. saline placebo) based on a randomization schedule generated at ChiRhoClin, Inc (Burtonsville, Md.). […] The final syringe with an identical appearing clear, colorless solution of identical volume containing either reconstituted sPS or saline was then delivered to the investigator performing the ERCP. The randomization code assigned patients in a 1:1 manner between the two treatments and was balanced in blocks of 250 patients.
Incidence of post-ERCP pancreatitis (sPS vs. placebo) was evaluated as the primary efficacy variable in this study. Secondary efficacy variables included incidences of post-ERCP pancreatitis in the following sub-populations: (1) cannulation of CBD; (2) sphincterotomy of CBD; (3) cannulation of pancreatic duct; (4) sphincterotomy of pancreatic duct; (5) stent insertion and removal into CBD; (6) stent insertion and removal into pancreatic duct; (7) stone extraction (basket) from CBD; (8) stone extraction (balloon) from CBD; (9) manometry of CBD; (10) manometry of pancreatic duct; (11) pain scores pre and post ERCP (0-10 scale); (12) nausea scores pre and post ERCP (0-10 scale); (13) vomiting scores pre and post ERCP (0-10 scale); (14) return to baseline activity (pre-ERCP); and (15) return to work.
In addition, the severity of pancreatitis was graded as defined by Cotton (Cotton, PB Gastrointest. Endosc. 40(4):514-18 (1994)), using the following criteria: (1) Minimal—managed on an outpatient basis; (2) Mild—Required hospitalization ≦3 days; (3) Moderate—required hospitalization for 4 to 10 days; and (4) Severe—required hospitalization for >10 days, ICU admission, surgical intervention or death. […]

[1] = of 44 cases, hospitalization 4 to 10 days
[2] = of 44 cases, hospitalization >10 days, ICU, surgery or death
[3] = of 44 cases, hospitalization ≦3 days
[4] = of 44 cases, managed on an outpatient basis
[5] = overall, N = 488, 16 mcg IV (24 mcg if >30 min), p 0.0161 vs placebo
[6] = sub-population Cannulation of CBD, N = 361
[7] = sub-population Cannulation of CBD, N = 361, p 0.0010
[8] = sub-population Cannulation of Pancreatic Duct, N = 220
[9] = sub-population Cannulation of Pancreatic Duct, N = 220, p 0.1237
[10] = sub-population Manometry of CBD, N = 19
[11] = sub-population Manometry of CBD, N = 19, p 0.0819
[12] = sub-population Manometry of Pancreatic Duct, N = 11
[13] = sub-population Manometry of Pancreatic Duct, N = 11, p 0.3665
[14] = sub-population Sphincterotomy of CBD, N = 140
[15] = sub-population Sphincterotomy of CBD, N = 140, p 0.0001
[16] = sub-population Sphincterotomy of Pancreatic Duct, N = 26
[17] = sub-population Sphincterotomy of Pancreatic Duct, N = 26, p 0.1666
[18] = sub-population Stent Insertion into CBD, N = 108
[19] = sub-population Stent Insertion into CBD, N = 108, p 0.0856
[20] = sub-population Stent Insertion into Pancreatic Duct, N = 23
[21] = sub-population Stent Insertion into Pancreatic Duct, N = 23, p 1.0000
[22] = sub-population Stent Removal from CBD, N = 58
[23] = sub-population Stent Removal from CBD, N = 58, p 0.6185
[24] = sub-population Stent Removal from Pancreatic Duct, N = 17
[25] = sub-population Stent Removal from Pancreatic Duct, N = 17, p 1.0000
[26] = sub-population Stone Extraction (Balloon), N = 55
[27] = sub-population Stone Extraction (Balloon), N = 55, p 1.0000
[28] = sub-population Stone Extraction (Basket), N = 35
[29] = sub-population Stone Extraction (Basket), N = 35, p 0.2298

synthetic porcine secretin (HSDGTFTSELSRLRDSARLQRLLQGLV-NH2; ends and bridges not checked; UniProt P63298 33-59, looked up) [SPS, synthetic form of porcine secretin, a 27 amino acid gastrointestinal peptide hormone]
Post-ERCP Pancreatitis Severity Total (%) (N = 488/44): 100.0% | Post-ERCP Pancreatitis Severity Total: number of cases (N = 488/44): 44 | Post-ERCP Pancreatitis Severity Unknown (%) (of 44 cases): 15.91% | Post-ERCP Pancreatitis Severity Unknown: number of cases (of 44 cases): 7 | Post-ERCP Pancreatitis Severity Moderate (%) [1]: 20.45% | Post-ERCP Pancreatitis Severity Moderate: number of cases [1]: 9 | Post-ERCP Pancreatitis Severity Severe (%) [2]: 2.27% | Post-ERCP Pancreatitis Severity Severe: number of cases [2]: 1 | Post-ERCP Pancreatitis Severity Mild (%) [3]: 31.82% | Post-ERCP Pancreatitis Severity Mild: number of cases [3]: 14 | Post-ERCP Pancreatitis Severity Minimal (%) [4]: 29.55% | Post-ERCP Pancreatitis Severity Minimal: number of cases [4]: 13 | Incidence of Post-ERCP Pancreatitis, No (%) (overall, N = 488, 16 mcg IV): 90.98% | Incidence of Post-ERCP Pancreatitis, No: number of patients (overall, N = 488, 16 mcg IV): 444 | Incidence of Post-ERCP Pancreatitis, Yes (%) [5]: 9.02% | Incidence of Post-ERCP Pancreatitis, Yes: number of patients [5]: 44 | magnitude of the decrease in the frequency of post-ERCP pancreatitis (relative to placebo, 979 patients, p=0.0137): 36.2% | Post-ERCP Pancreatitis No (%) [6]: 92.52% | Post-ERCP Pancreatitis No: number of patients [6]: 334 | Post-ERCP Pancreatitis Yes (%) [7]: 7.48% | Post-ERCP Pancreatitis Yes: number of patients [7]: 27 | Post-ERCP Pancreatitis No (%) [8]: 86.36% | Post-ERCP Pancreatitis No: number of patients [8]: 190 | Post-ERCP Pancreatitis Yes (%) [9]: 13.64% | Post-ERCP Pancreatitis Yes: number of patients [9]: 30 | Post-ERCP Pancreatitis No (%) [10]: 78.95% | Post-ERCP Pancreatitis No: number of patients [10]: 15 | Post-ERCP Pancreatitis Yes (%) [11]: 21.05% | Post-ERCP Pancreatitis Yes: number of patients [11]: 4 | Post-ERCP Pancreatitis No (%) [12]: 54.58% | Post-ERCP Pancreatitis No: number of patients [12]: 6 | Post-ERCP Pancreatitis Yes (%) [13]: 45.45% | Post-ERCP Pancreatitis Yes: number of patients [13]: 5 | Post-ERCP Pancreatitis No (%) [14]: 95.00% | Post-ERCP Pancreatitis No: number of patients [14]: 133 | Post-ERCP Pancreatitis Yes (%) [15]: 5.00% | Post-ERCP Pancreatitis Yes: number of patients [15]: 7 | Post-ERCP Pancreatitis No (%) [16]: 57.85% | Post-ERCP Pancreatitis No: number of patients [16]: 14 | Post-ERCP Pancreatitis Yes (%) [17]: 46.15% | Post-ERCP Pancreatitis Yes: number of patients [17]: 12 | Post-ERCP Pancreatitis No (%) [18]: 97.22% | Post-ERCP Pancreatitis No: number of patients [18]: 105 | Post-ERCP Pancreatitis Yes (%) [19]: 2.78% | Post-ERCP Pancreatitis Yes: number of patients [19]: 3 | Post-ERCP Pancreatitis No (%) [20]: 78.26% | Post-ERCP Pancreatitis No: number of patients [20]: 18 | Post-ERCP Pancreatitis Yes (%) [21]: 21.74% | Post-ERCP Pancreatitis Yes: number of patients [21]: 5 | Post-ERCP Pancreatitis Yes (%) (sub-population Stent Insertion into Pancreatic Duct, N = 23, p 1.0000, listed as sPS): 21.7% | Post-ERCP Pancreatitis No (%) [22]: 98.28% | Post-ERCP Pancreatitis No: number of patients [22]: 57 | Post-ERCP Pancreatitis Yes (%) [23]: 1.72% | Post-ERCP Pancreatitis Yes: number of patients [23]: 1 | Post-ERCP Pancreatitis No (%) [24]: 88.24% | Post-ERCP Pancreatitis No: number of patients [24]: 15 | Post-ERCP Pancreatitis Yes (%) [25]: 11.76% | Post-ERCP Pancreatitis Yes: number of patients [25]: 2 | Post-ERCP Pancreatitis No (%) [26]: 92.73% | Post-ERCP Pancreatitis No: number of patients [26]: 51 | Post-ERCP Pancreatitis Yes (%) [27]: 7.27% | Post-ERCP Pancreatitis Yes: number of patients [27]: 4 | Post-ERCP Pancreatitis No (%) [28]: 97.14% | Post-ERCP Pancreatitis No: number of patients [28]: 34 | Post-ERCP Pancreatitis Yes (%) [29]: 2.86% | Post-ERCP Pancreatitis Yes: number of patients [29]: 1
